Measurements taken from patent publication EP3409761B1, “CULTURE MEDIUM COMPOSITION, AND METHOD FOR CULTURING CELL OR TISSUE USING SAID COMPOSITION” (Nissan Chemical Corporation, priority 2012, dated 2014).

What was measured:
Type in all cases: cell-based
[1] = test system: human cervical cancer cell line HeLa; assay: Comparison with single layer culture method in cell proliferation test using anticancer drug; conditions: day 4
Procedure: This aqueous solution was sterilized at 121°C for 20 min in an autoclave. […] Each plate was cultured by being stood still in a CO2 incubator (37°C, 5% CO2). […] The anticancer drug used was Adriamycin (manufactured by WAKO), Paclitaxel (manufactured by WAKO) or Mitomycin C (manufactured by WAKO). To the culture medium on day 4 was added an ATP reagent (150 µL) (CellTiter-Glo (registered trade mark) Luminescent Cell Viability Assay, manufactured by Promega) to give a suspension, which was stood for about 10 min at room temperature, and the luminescence intensity (RLU value) was measured by FlexStation3 (manufactured by Molecular Devices), and the number of viable cells was measured by subtracting the luminescence value of the medium alone. For WST-8 measurement, a WST-8 solution (manufactured by DOJINDO Laboratories, 15 µL) was added, the mixture was incubated at 37°C for 100 min, the absorbance at 450 nm was measured by an absorbance spectrometer (manufactured by Molecular Devices, SPECTRA MAX 190), and the number of viable cells was measured by subtracting the absorbance of the medium alone.

[2] = test system: human cervical cancer cell line HeLa; assay: Comparison with single layer culture method using agent for inducing apoptosis; conditions: agent 1 µM, day 4
Procedure: This aqueous solution was sterilized at 121°C for 20 min in an autoclave. […] Each plate was cultured by being stood still in a CO2 incubator (37°C, 5% CO2). […] To the culture medium on day 4 was added an ATP reagent (150 µL) (CellTiter-Glo (registered trade mark) Luminescent Cell Viability Assay, manufactured by Promega) to give a suspension, which was stood for about 10 min at room temperature, and the luminescence intensity (RLU value) was measured by FlexStation3 (manufactured by Molecular Devices), and the number of viable cells was measured by subtracting the luminescence value of the medium alone. For WST-8 measurement, a WST-8 solution (manufactured by DOJINDO Laboratories, 15 µL) was added, the mixture was incubated at 37°C for 100 min, the absorbance at 450 nm was measured by an absorbance spectrometer (manufactured by Molecular Devices, SPECTRA MAX 190), and the number of viable cells was measured by subtracting the absorbance of the medium alone.

[3] = test system: human cervical cancer cell line HeLa; assay: Cell proliferation test using various anticancer drugs; conditions: DAG 0.030% medium; for cell density: 5 days later
Procedure: This aqueous solution was sterilized at 121°C for 20 min in an autoclave. […] The anticancer drug used was Adriamycin (manufactured by WAKO), Paclitaxel (manufactured by WAKO) or Mitomycin C (manufactured by WAKO).
Successively, this plate was cultured by being stood still in a CO2 incubator (37°C, 5% CO2) for 7 days. After culturing for 3, 5, 7 days, to the culture medium was added a WST-8 solution (manufactured by DOJINDO Laboratories, 20 µL), and the mixture was incubated at 37°C for 100 min. The absorbance at 450 nm was measured by an absorbance spectrometer (manufactured by Molecular Devices, SPECTRA MAX 190), and the number of viable cells was measured by subtracting the absorbance of the medium alone. The culture medium containing the cells after 5 days of culture was stirred with a pipette and the obtained stirred solution (20 µL) was mixed with Trypan Blue stain 0.4% (manufactured by Invitrogen, 20 µL) and the cell density was measured under a microscope.

[4] = test system: human lung cancer cell line A549; assay: A549 cell proliferation test using Trametinib and MK-2206; conditions: day 4 of the static culture
Procedure: (§1) This aqueous solution was sterilized at 121°C for 20 min in an autoclave. […] Each plate was cultured by being stood still in a CO2 incubator (37°C, 5% CO2). […] The anticancer drugs used were Trametinib (manufactured by Santa Cruz, MEK inhibitor) and MK-2206 (manufactured by Santa Cruz, Akt inhibitor). […]

[5] = test system: human cervical cancer cell line HeLa; assay: HeLa cell proliferation test using Trametinib and MK-2206; conditions: day 4 of the static culture
Procedure: as §1

[6] = drug 0.001 µM, deacylated gellan gum addition group (0.015%)
[7] = drug 0.001 µM, single layer culture group
[8] = drug 0.01 µM, deacylated gellan gum addition group (0.015%)
[9] = drug 0.01 µM, single layer culture group
[10] = drug 0.1 µM, deacylated gellan gum addition group (0.015%)
[11] = drug 0.1 µM, single layer culture group
[12] = drug 1 µM, deacylated gellan gum addition group (0.015%)
[13] = drug 1 µM, single layer culture group
[14] = deacylated gellan gum addition group (0.015%)
[15] = drug 0.03 µM, deacylated gellan gum addition group (0.015%)
[16] = drug 0.03 µM, single layer culture group
[17] = drug 0.3 µM, deacylated gellan gum addition group (0.015%)
[18] = drug 0.3 µM, single layer culture group
[19] = drug 3 µM, deacylated gellan gum addition group (0.015%)
[20] = drug 3 µM, single layer culture group
[21] = drug 30 µM, deacylated gellan gum addition group (0.015%)
[22] = drug 30 µM, single layer culture group

Compound: COc1cccc2c1C(=O)c1c(O)c3c(c(O)c1C2=O)C[C@@](O)(C(=O)CO)C[C@@H]3O[C@H]1C[C@H](N)[C@H](O)[C@H](C)O1 [Adriamycin]
- % Control value of the RLU value (ATP measurement) [1, 6]: 96 % Control
- % Control value of the absorbance at 450 nm (WST-8 measurement) [1, 6]: 105 % Control
- % Control value of the RLU value (ATP measurement) [1, 7]: 97 % Control
- % Control value of the absorbance at 450 nm (WST-8 measurement) [1, 7]: 109 % Control
- % Control value of the RLU value (ATP measurement) [1, 8]: 81 % Control
- % Control value of the absorbance at 450 nm (WST-8 measurement) [1, 8]: 86 % Control
- % Control value of the RLU value (ATP measurement) [1, 9]: 97 % Control
- % Control value of the absorbance at 450 nm (WST-8 measurement) [1, 9]: 107 % Control
- % Control value of the RLU value (ATP measurement) [1, 10]: 41 % Control
- % Control value of the absorbance at 450 nm (WST-8 measurement) [1, 10]: 36 % Control
- % Control value of the RLU value (ATP measurement) [1, 11]: 65 % Control
- % Control value of the absorbance at 450 nm (WST-8 measurement) [1, 11]: 74 % Control
- % Control value of the RLU value (ATP measurement) [1, 12]: 15 % Control
- % Control value of the absorbance at 450 nm (WST-8 measurement) [1, 12]: 4 % Control
- % Control value of the RLU value (ATP measurement) [1, 13]: 5 % Control
- % Control value of the absorbance at 450 nm (WST-8 measurement) [1, 13]: 6 % Control
- % Control value of the RLU value (ATP measurement) [2, 14]: 5 % Control
- % Control value of the absorbance at 450 nm (WST-8 measurement) [2, 14]: 3 % Control
- % Control value of the RLU value (ATP measurement) ([2]; single layer culture group): 3 % Control
- % Control value of the absorbance at 450 nm (WST-8 measurement) ([2]; single layer culture group): 3 % Control
- cell density ([3]; drug 0.001 µM): 5.1 10^4 cells/mL
- cell number (absorbance at 450 nm, WST-8) ([3]; drug 0.001 µM, day 3): 0.237
- cell number (absorbance at 450 nm, WST-8) ([3]; drug 0.001 µM, day 5): 0.246
- cell number (absorbance at 450 nm, WST-8) ([3]; drug 0.001 µM, day 7): 0.184
- cell density ([3]; drug 0.01 µM): 2.6 10^4 cells/mL
- cell number (absorbance at 450 nm, WST-8) ([3]; drug 0.01 µM, day 3): 0.230
- cell number (absorbance at 450 nm, WST-8) ([3]; drug 0.01 µM, day 5): 0.098
- cell number (absorbance at 450 nm, WST-8) ([3]; drug 0.01 µM, day 7): 0.068
- cell density ([3]; drug 0.1 µM): 1.7 10^4 cells/mL
- cell number (absorbance at 450 nm, WST-8) ([3]; drug 0.1 µM, day 3): 0.037
- cell number (absorbance at 450 nm, WST-8) ([3]; drug 0.1 µM, day 5): 0.005
- cell number (absorbance at 450 nm, WST-8) ([3]; drug 0.1 µM, day 7): < 0
- cell density ([3]; drug 1 µM): 0.6 10^4 cells/mL
- cell number (absorbance at 450 nm, WST-8) ([3]; drug 1 µM, day 3): < 0
- cell number (absorbance at 450 nm, WST-8) ([3]; drug 1 µM, day 5): < 0
- cell number (absorbance at 450 nm, WST-8) ([3]; drug 1 µM, day 7): < 0

Compound: NC1(c2ccc(-c3nc4ccn5c(=O)[nH]nc5c4cc3-c3ccccc3)cc2)CCC1 [MK-2206]
- % Control value of the RLU value (ATP measurement) [4, 15]: 84 % Control
- % Control value of the RLU value (ATP measurement) [4, 16]: 93 % Control
- % Control value of the RLU value (ATP measurement) [4, 17]: 45 % Control
- % Control value of the RLU value (ATP measurement) [4, 18]: 79 % Control
- % Control value of the RLU value (ATP measurement) [4, 19]: 21 % Control
- % Control value of the RLU value (ATP measurement) [4, 20]: 53 % Control
- % Control value of the RLU value (ATP measurement) [4, 21]: 0 % Control
- % Control value of the RLU value (ATP measurement) [4, 22]: 0 % Control
- % Control value of the RLU value (ATP measurement) [5, 15]: 57 % Control
- % Control value of the RLU value (ATP measurement) [5, 16]: 93 % Control
- % Control value of the RLU value (ATP measurement) [5, 17]: 21 % Control
- % Control value of the RLU value (ATP measurement) [5, 18]: 84 % Control
- % Control value of the RLU value (ATP measurement) [5, 19]: 21 % Control
- % Control value of the RLU value (ATP measurement) [5, 20]: 69 % Control
- % Control value of the RLU value (ATP measurement) [5, 21]: 0 % Control
- % Control value of the RLU value (ATP measurement) [5, 22]: 0 % Control

Compound: CC(=O)Nc1cccc(-n2c(=O)n(C3CC3)c(=O)c3c(Nc4ccc(I)cc4F)n(C)c(=O)c(C)c32)c1 [Trametinib]
- % Control value of the RLU value (ATP measurement) [4, 6]: 72 % Control
- % Control value of the RLU value (ATP measurement) [4, 7]: 71 % Control
- % Control value of the RLU value (ATP measurement) [4, 8]: 35 % Control
- % Control value of the RLU value (ATP measurement) [4, 9]: 37 % Control
- % Control value of the RLU value (ATP measurement) [4, 10]: 2 % Control
- % Control value of the RLU value (ATP measurement) [4, 11]: 5 % Control
- % Control value of the RLU value (ATP measurement) [4, 12]: 0 % Control
- % Control value of the RLU value (ATP measurement) [4, 13]: 1 % Control
- % Control value of the RLU value (ATP measurement) [5, 6]: 73 % Control
- % Control value of the RLU value (ATP measurement) [5, 7]: 102 % Control
- % Control value of the RLU value (ATP measurement) [5, 8]: 12 % Control
- % Control value of the RLU value (ATP measurement) [5, 9]: 93 % Control
- % Control value of the RLU value (ATP measurement) [5, 10]: 1 % Control
- % Control value of the RLU value (ATP measurement) [5, 11]: 20 % Control
- % Control value of the RLU value (ATP measurement) [5, 12]: 1 % Control
- % Control value of the RLU value (ATP measurement) [5, 13]: 3 % Control
